The values that follow come from article PMC5420329 (Journal of medicinal chemistry, 2015).

pIC50: −log10 of the molar value. Where two headings read alike, the source gives them in different places. Where only a bound is given, the exact number is not on record here.

One series relates to zinc metalloproteinases. As to the kind of experiment: Selectivity testing against extended panel of zinc metalloproteinases. Particulars: ADAM17 versus five other metzincins. In kind it is biochemical.
Another series has as its system CXCL16. Put plainly: CXCL16 shedding inhibition in HTSMC. Type of series: cell-based, human. Particulars: for CXCL16 shedding inhibition: HTSMC, 10 μM; for inhibition at 10 µM: Homo sapiens, read-out: CXCL16 shedding inhibition.
The next series has as its system Heregulin. As to the kind of experiment: Inhibition of heregulin shedding in A549 cells. Type of series: cell-based. Particulars: for inhibition at 40 µM: Homo sapiens, A549, read-out: Heregulin shedding inhibition.
The next series deals with TGFα. As to the kind of experiment: Inhibition of TGFα shedding in A549 cells. Type of series: cell-based. Particulars: for inhibition at 40 µM: Homo sapiens, A549, read-out: TGFα shedding inhibition.
The next series concerns betacellulin. As to the kind of experiment: Inhibition of betacellulin shedding in A549 cells. Type of series: cell-based. The note with it: for inhibition at 40 µM: Homo sapiens, A549, read-out: BTC (betacellulin) shedding inhibition.
A further series deals with ADAM10 (Homo sapiens, UniProt O14672). As to the kind of experiment: ADAM10 glycosylated substrate assay. In kind it is biochemical.
Chain of ADAM10 (O14672 214-748): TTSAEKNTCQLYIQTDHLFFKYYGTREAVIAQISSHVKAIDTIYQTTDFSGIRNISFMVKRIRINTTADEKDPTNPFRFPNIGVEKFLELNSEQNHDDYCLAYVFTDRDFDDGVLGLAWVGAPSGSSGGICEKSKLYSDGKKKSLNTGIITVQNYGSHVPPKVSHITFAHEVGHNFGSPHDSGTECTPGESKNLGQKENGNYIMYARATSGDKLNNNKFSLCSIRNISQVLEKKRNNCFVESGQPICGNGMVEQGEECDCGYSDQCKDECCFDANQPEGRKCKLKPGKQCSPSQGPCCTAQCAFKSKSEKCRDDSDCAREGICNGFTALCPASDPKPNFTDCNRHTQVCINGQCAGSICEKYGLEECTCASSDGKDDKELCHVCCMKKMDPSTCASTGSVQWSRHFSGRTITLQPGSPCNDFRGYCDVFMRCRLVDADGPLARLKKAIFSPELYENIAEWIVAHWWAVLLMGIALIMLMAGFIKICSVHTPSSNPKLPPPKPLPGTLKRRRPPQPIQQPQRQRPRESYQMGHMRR
In series [1] the test system is A549 cells. Put plainly: CellTiter Glo cell viability assay. In kind it is cell-based. The note with it: 72 h, up to 33 μM. Background: Cellular ATP, detected with luciferase, serves as a proxy for viable cell number.
In another series the test system is HEPG2 cells. As to the kind of experiment: CellTiter Glo cell viability assay. Particulars: 72 h, up to 33 μM. Type of series: cell-based.
Another series deals with MDA-MB-231 cells. As to the kind of experiment: CellTiter Glo cell viability assay. Type of series: cell-based. The note with it: 72 h, up to 33 μM.
The subject of a further series is L622D-PTK7. As to the kind of experiment: Inhibition of PTK7 shedding in HT1080-L622D cells. In kind it is cell-based, human.
In the next series the test system is wtPTK7. Put plainly: Inhibition of PTK7 shedding in SW480 cells. Type of series: cell-based.
The subject of series [2] is HT1080 cells. Put plainly: Transwell invasion assay. In kind it is cell-based, human. Particulars: Matrigel.
A further series has as its system Notch. Particulars: SKMEL-28, 25 μM; ref Personal communication from Dr. Kaushik (Kansas University Medical Center); cited from earlier work.
The test system of series [3] is A549 cells. Put plainly: Synergy studies, A549 viability assay.
Another series deals with ADAM17 (Homo sapiens, UniProt P78536). Put plainly: ADAM17 glycosylated substrate assay. Type of series: biochemical.
Chain of ADAM17 (P78536 215-824): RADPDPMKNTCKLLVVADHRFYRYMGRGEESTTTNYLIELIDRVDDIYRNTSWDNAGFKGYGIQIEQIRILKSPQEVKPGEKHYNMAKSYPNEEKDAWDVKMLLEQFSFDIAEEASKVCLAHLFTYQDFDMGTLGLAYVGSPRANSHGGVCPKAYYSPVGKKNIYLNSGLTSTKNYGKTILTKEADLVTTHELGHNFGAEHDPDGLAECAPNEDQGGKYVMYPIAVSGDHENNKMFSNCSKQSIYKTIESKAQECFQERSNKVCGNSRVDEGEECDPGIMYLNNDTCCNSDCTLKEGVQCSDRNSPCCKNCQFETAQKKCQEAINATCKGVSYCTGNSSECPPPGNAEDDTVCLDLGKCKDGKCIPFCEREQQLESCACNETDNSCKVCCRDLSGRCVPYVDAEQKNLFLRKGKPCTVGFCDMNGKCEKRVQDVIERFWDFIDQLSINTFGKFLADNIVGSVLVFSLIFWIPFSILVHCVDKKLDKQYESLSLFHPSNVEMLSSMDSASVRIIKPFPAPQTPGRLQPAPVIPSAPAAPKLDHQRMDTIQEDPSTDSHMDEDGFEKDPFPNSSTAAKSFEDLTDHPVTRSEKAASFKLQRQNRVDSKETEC
The next series concerns the target MMP2 (Homo sapiens, UniProt P08253). Put plainly: MMP assay. In kind it is biochemical.
For another series, the target named is MMP8 (Homo sapiens, UniProt P22894). As to the kind of experiment: MMP assay. Type of series: biochemical.
Chain of MMP8 (P22894 101-467, species assumed): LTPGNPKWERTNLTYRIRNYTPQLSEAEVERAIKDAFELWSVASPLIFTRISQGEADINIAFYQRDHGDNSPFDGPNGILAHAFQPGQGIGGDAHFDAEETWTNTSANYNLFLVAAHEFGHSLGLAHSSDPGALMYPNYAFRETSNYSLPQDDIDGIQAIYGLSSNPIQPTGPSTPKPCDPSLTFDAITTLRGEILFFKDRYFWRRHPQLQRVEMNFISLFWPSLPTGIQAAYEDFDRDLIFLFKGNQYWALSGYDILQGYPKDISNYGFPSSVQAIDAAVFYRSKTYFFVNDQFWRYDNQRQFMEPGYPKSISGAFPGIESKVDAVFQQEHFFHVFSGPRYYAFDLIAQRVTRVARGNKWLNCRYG
Another series deals with MMP9 (Homo sapiens, UniProt P14780). Put plainly: MMP assay. In kind it is biochemical.
Chain of MMP9 (P14780 94-707, species assumed): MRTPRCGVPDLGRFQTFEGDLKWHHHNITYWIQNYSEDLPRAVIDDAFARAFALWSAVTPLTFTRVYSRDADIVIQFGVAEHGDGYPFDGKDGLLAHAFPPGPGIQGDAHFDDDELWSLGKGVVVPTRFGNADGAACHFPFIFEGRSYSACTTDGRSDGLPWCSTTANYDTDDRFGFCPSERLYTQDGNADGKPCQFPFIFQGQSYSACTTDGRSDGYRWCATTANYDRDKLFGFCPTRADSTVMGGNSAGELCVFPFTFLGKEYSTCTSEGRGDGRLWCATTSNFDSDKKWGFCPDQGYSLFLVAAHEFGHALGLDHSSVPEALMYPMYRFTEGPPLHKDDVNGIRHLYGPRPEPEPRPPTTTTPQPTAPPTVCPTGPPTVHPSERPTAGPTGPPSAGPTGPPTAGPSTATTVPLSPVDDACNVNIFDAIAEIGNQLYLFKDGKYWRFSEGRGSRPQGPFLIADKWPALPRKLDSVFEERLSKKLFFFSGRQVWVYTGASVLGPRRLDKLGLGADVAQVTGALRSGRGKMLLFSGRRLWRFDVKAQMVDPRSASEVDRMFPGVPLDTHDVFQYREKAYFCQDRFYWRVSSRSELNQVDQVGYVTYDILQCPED
The target of a further series is MMP14 (Homo sapiens, UniProt P50281). As to the kind of experiment: MMP assay. Type of series: biochemical.
A further series deals with TNFα. As to the kind of experiment: Inhibition of TNFα shedding in THP-1 cells. Type of series: cell-based. The note with it: Homo sapiens, THP-1, read-out: TNFα shedding inhibition.
Another series has as its system PTK7. Particulars: cited from earlier work.
Series [4] has as its system HT1080 cells. The note with it: cited from earlier work.
The test system of series [5] is EGFR ligand (heregulin, TGFα, HB-EGF, amphiregulin, and EGF). Particulars: cited from earlier work.

Chain of MMP2 (P08253 110-660, species assumed): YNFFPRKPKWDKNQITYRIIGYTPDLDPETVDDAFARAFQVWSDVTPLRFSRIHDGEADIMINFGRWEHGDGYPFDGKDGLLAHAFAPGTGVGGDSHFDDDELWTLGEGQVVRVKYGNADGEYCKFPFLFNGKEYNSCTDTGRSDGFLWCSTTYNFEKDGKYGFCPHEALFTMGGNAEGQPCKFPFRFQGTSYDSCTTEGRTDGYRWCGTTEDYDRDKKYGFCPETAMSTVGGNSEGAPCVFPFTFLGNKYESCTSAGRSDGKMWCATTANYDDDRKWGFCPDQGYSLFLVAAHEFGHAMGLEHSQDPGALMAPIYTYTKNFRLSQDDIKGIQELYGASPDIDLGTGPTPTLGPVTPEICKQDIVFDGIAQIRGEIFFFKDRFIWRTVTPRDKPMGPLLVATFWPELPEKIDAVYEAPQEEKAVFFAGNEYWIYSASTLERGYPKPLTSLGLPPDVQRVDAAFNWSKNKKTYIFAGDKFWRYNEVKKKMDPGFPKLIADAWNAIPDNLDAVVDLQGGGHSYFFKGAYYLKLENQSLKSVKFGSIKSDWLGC

With `CCCC[C@H]1CN([C@@H](Cc2ccc(O)cc2)CN2CCC[C@H]2CN2C(=O)C(=O)NC[C@H]2Cc2ccc3ccccc3c2)C(=O)C(=O)N1CCC12CC3CC(CC(C3)C1)C2` [Compound 16, (S)-4-(2-(Adamantan-1-yl)ethyl)-5-butyl-1-((S)-1-(4-hydroxyphenyl)-3-((S)-2-(((R)-6-(naphthalen-2-ylmethyl)-2,3-dioxopiperazin-1-yl)methyl)pyrrolidin-1-yl)propan-2-yl)piperazine-2,3-dione], the selectivity profile result in the series with zinc metalloproteinases was “inhibiting only ADAM17”. Besides, the CXCL16 shedding inhibition entry in the series with CXCL16 is reported as “did not inhibit”. Moreover, in the series with CXCL16, the inhibition (commonly the relative decrease from the control value, in per cent) at 10 µM was 0%. In addition, the inhibition at 40 µM in the series with Heregulin, with TGFα and in the series on betacellulin was 0% in each case.

On to `O=C1NC[C@@H](Cc2ccc(O)cc2)N(C[C@@H]2CCCN2C[C@@H](Cc2ccc3ccccc3c2)N2C[C@H](Cc3ccc(O)cc3)N(CCC34CC5CC(CC(C5)C3)C4)C(=O)C2=O)C1=O` [Compound 17, (5R)-4-(2-((1R,3R)-Adamantan-1-yl)ethyl)-5-(4-hydroxybenzyl)-1-((2R)-1-(2-(((R)-6-(4-hydroxybenzyl)-2,3-dioxopiperazin-1-yl)-methyl)pyrrolidin-1-yl)-3-(naphthalen-2-yl)propan-2-yl)piperazine-2,3-dione], for which the “ADAM10 IC50” value on ADAM10 (Table 4 selectivity panel) is “did not inhibit”. In the series on A549 cells [1], the “viability of A549 cells” value is “no intrinsic activity”. Besides, in the series with HEPG2 cells, the “viability of HEPG2 cells” value was “did not inhibit viability”. In addition, the “viability of MDA-MB-231 cells” value with MDA-MB-231 cells is listed as “did not inhibit viability”. The CXCL16 shedding inhibition entry in the series with CXCL16 is on record as “did not inhibit”. For the same molecule, the inhibition at 10 µM in the series on CXCL16 came out at 0%. Also, the PTK7 shedding inhibition is 25–50% in the series with L622D-PTK7 (HT1080 (L622D-PTK7), PMA, 25–100 μM) and 0–82% in the series on wtPTK7 (SW480 (wtPTK7), PMA, 25–100 μM). For the same molecule, the “shedding of L622D-PTK7” value with L622D-PTK7 (HT1080-L622D, PMA stimulated, 50 and 100 μM) was “inhibited shedding”. The “shedding of wtPTK-7” value in the series with wtPTK7 (SW480, PMA stimulated, 50 and 100 μM) is “inhibited shedding”. The “invasion of HT1080 cells” value in the series on HT1080 cells [2] is reported as “dose-dependent inhibition of invasion”. Moreover, the Heregulin shedding inhibition entry in the series with Heregulin (A549, PMA, 40 μM) was “completely inhibited shedding”. For the same molecule, the inhibition at 40 µM was determined as 100% with Heregulin, 0% in the series on TGFα and 0% in the series on betacellulin. Further, the “shedding of TGFα” value in the series on TGFα (A549, up to 100 μM) is “did not affect shedding”. In addition, in the series with Notch, the Notch shedding inhibition is listed as 0%. In addition, in the series on A549 cells [3] (40 μM compound 17), the “potentiation of gefitinib activity against A549 cells” value was “potentiated gefitinib activity”. Also, in the series with A549 cells [3] (A549, 40 μM compound 17), the “potentiation of doxorubicin activity” value is listed as “did not potentiate the activity”. For the same molecule, in the series with A549 cells [3] (A549, 40 μM compound 17), the “potentiation of etoposide activity” value was “did not potentiate the activity”.

Consider `O=C1NC[C@H](Cc2ccccc2)N(C[C@@H]2CCCN2C[C@@H](CC2CCCCC2)N2C[C@H](Cc3ccc(O)cc3)N(CCc3ccccc3)C(=O)C2=O)C1=O` [Compound 18, (S)-1((R)-1((S)-2-(((S)-6-Benzyl-2,3-dioxopiperazin-1-yl)methyl)-pyrrolidin-1-yl)-3-cyclohexylpropan-2-yl)-5-(4-hydroxybenzyl)-4-phenethylpiperazine-2,3-dione], for which the “viability of HEPG2 cells” value with HEPG2 cells is reported as “did not inhibit viability”. The “viability of MDA-MB-231 cells” value in the series on MDA-MB-231 cells was “did not inhibit viability”. The CXCL16 shedding inhibition result in the series on CXCL16 is “did not inhibit”. In the series with CXCL16, the inhibition at 10 µM worked out at 0%. The inhibition at 40 µM with Heregulin, with TGFα and in the series on betacellulin was 0% throughout.

For the molecule `O=C1NC[C@H](Cc2ccccc2)N(C[C@@H]2CCCN2C[C@H](Cc2ccccc2)N2C[C@H](Cc3ccc(O)cc3)N(CCC34CC5CC(CC(C5)C3)C4)C(=O)C2=O)C1=O` [Compound 20, (S)-4-(2-(Adamantan-1yl)ethyl)-1-((S)-1-((S)-2-(((S)-6-benzyl-2,3-dioxopiperazin-1-yl)methyl)pyrrolidin-1-yl)-3-phenylpropan-2-yl)-5-(4-hydroxybenzyl)piperazine-2,3-dione], the selectivity profile entry with zinc metalloproteinases is listed as “inhibiting only ADAM17”. Moreover, the “viability of HEPG2 cells” value in the series on HEPG2 cells was “did not inhibit viability”. For the same molecule, the “viability of MDA-MB-231 cells” value with MDA-MB-231 cells is listed as “did not inhibit viability”. In addition, in the series on CXCL16, the CXCL16 shedding inhibition entry is reported as “did not inhibit”. Moreover, in the series on CXCL16, the inhibition at 10 µM stood at 0%. Further, the inhibition at 40 µM in the series with Heregulin, in the series with TGFα and in the series with betacellulin was 0% each time.

In the case of `O=C1NC[C@H](Cc2ccccc2)N(C[C@@H]2CCCN2C[C@@H](CC2CCCCC2)N2C[C@H](Cc3ccccc3)N(CCc3ccccc3)C(=O)C2=O)C1=O` [Compound 21, (S)-5-Benzyl-1-((R)-1-((S)-2-(((S)-6-benzyl-2,3-dioxopiperazin-1-yl)methyl)pyrrolidin-1-yl)-3-cyclohexylpropan-2-yl)-4-phenethylpiperazine-2,3-dione], the pIC50 – broadly, the IC50 on a negative log10 scale, so that one unit is a factor of ten – is 5.07 at ADAM17; less than 4.00 on ADAM10; less than 4.00 against MMP2; less than 4.00 against MMP8; less than 4.00 against MMP9; less than 4.00 at MMP14. Also, the inhibition at 100 µM on ADAM17 (read-out: ADAM17 %inhibition at 100 μM) was 100%. Further, in the series on zinc metalloproteinases, the selectivity profile entry is reported as “inhibiting only ADAM17”. In the series with TNFα, the inhibition at 25 µM was found to be 0%. Besides, the inhibition at 40 µM in the series on TGFα and with betacellulin was 0% throughout.

On to `COC(=O)N1CC2(CC2)C[C@H](C(=O)NO)[C@H]1C(=O)N1CC=C(c2ccccc2)CC1` [INCB3619], for which the “shedding of PTK7” value in the series with PTK7 is listed as “able to inhibit”. For the same molecule, the “invasion of HT1080 cells” value with HT1080 cells [4] was “able to inhibit”. Besides, the “heregulin shedding in A549 cells” value in series [5] was “abrogation of heregulin shedding”.

As to `CNC(=O)[C@@H](NC(=O)[C@H](CC(C)C)[C@H](O)C(=O)NO)C(C)(C)C` [Marimastat, (2S,3R)-N4-[(1S)-2,2-dimethyl-1-[(methylamino)carbonyl]propyl]-N1,2-dihydroxy-3-(2-methylpropyl)butanediamide, reference compound], the “soluble TGFα in supernatant” value in the series with TGFα (A549, PMA, 10 μM) is listed as “decreased soluble TGFα in the supernatant of A549 cells to the level of non-PMA-treated control”. Besides, in the series on betacellulin (A549, 10 μM), the betacellulin shedding inhibition entry was “almost complete inhibition”. For the same molecule, the “shedding of EGFR ligands (heregulin, TGFα, HB-EGF, amphiregulin, EGF)” value in series [5] (A549 cells) is “inhibited shedding of each tested EGFR ligand”.
